According to PMC11280065, “^64Cu^2+ Complexes of Tripodal Amine Ligands’ In Vivo Tumor and Liver Uptakes and Intracellular Cu Distribution in the Extrahepatic Bile Duct Carcinoma Cell Line TFK-1: A Basic Comparative Study” (Pharmaceuticals, 2024):
Blank lines part the entries; values can stand above or below the molecule they belong to.

How the values were obtained:
[1] = test system: mice bearing TFK-1-RFP cells; conditions: mean ± SD
TFK-1 cells = assay: Micro-PIXE analysis of intracellular Cu distribution; type: cell-based, human; conditions: compared among the three Cu2+ complexes and Cu2+ ions, no significant differences
From the text: A positive correlation was observed between in vitro whole-cell uptake and in vivo tumor uptake (R = 0.992, p = 0.00772) (Figure S2). Similarly, we observed a consistent correlation between in vitro nuclear uptake and in vivo tumor uptake (417.6 counts ± 150.02 for Cu^2+-Tren, 203.00 counts ± 25.13 for Cu^2+-Dien, 94.82 counts ± 48.07 for Cu^2+-TPMA, and 35.57 counts ± 25.02 for Cu^2+ ions) (p < 0.05).
The human extrahepatic bile duct carcinoma cell line TFK-1 was obtained from the RIKEN Bioresource Research Center (Ibaraki, Japan) and immediately expanded and frozen in our laboratory. […] Exponentially growing cells were detached from plates using trypsin (0.5 w/v% Trypsin-5.3 mmol/L EDTA·4Na Solution without Phenol Red (×10), Fujifilm Wako Pure Chemical Corporation, Osaka, Japan), and the number of viable cells was determined using the trypan blue dye (Bio-Rad, Hercules CA, USA) exclusion method.
A micro-PIXE analysis was carried out at the QST Electrostatic Accelerator Facility. […] Cells were subsequently stained with DAPI (4′,6-diamidino-2-phenylindole; Bio-Rad, Hercules, CA, USA) for nuclear localization and observed under a fluorescence microscope (BZ-X810, Keyence, Osaka, Japan). […] Distributions of Cu, P, K, Ca, Al, Fe, and S in each group were determined using Kα lines. […] Nuclei localization was determined via fluorescence microscope images of DAPI staining. […]

- urinary excretion ([1]; urine collected during the 2.5 h post-administration, intravenous, TFK-1-RFP-xenografted mice): 1.68 ± 0.46 %ID
SMILES: NCCNCCN.[Cl-].[Cl-].[Cu+2] [Cu^2+-Dien]

- tumor uptake ([1]; TFK-1-RFP-xenografted SCID beige mice, 2.5 h after intravenous injection of 1.85 MBq, n = 3–4/group): 7.56 ± 0.41 %ID/g
SMILES: [Cl-].[Cl-].[Cu+2].c1ccc(CN(Cc2ccccn2)Cc2ccccn2)nc1 [Cu^2+-TPMA]

SMILES: NCCN(CCN)CCN.[Cl-].[Cl-].[Cu+2] [Cu^2+-Tren]
- percentage counts of nuclear uptake/whole-cell uptake (TFK-1 cells): highest average value
